Results on 2 molecules are retold here after patent USRE43005E1, “Compositions and methods for their preparation from lepidium” (Naturex Inc., priority 1999, dated 2011).

Structures are written as SMILES.

Usually melting point stands for the temperature of the solid-liquid transition.

`CCCCCCCC(=O)NCc1ccccc1` [MA-3, N-benzyl octanamide] displayed a melting point of 76 to 78 °C.

`CCC(=O)/C=C/C=C/C=C/C(=O)CCCCCCCC(=O)NCc1ccccc1` [MA-9, N-benzyl-9,16-dioxo-10E,12E,14E-octadecatrienamide]: the melting point fell in the range of 115 to 116 °C.
